From ChEMBL document CHEMBL3397035, “Spectral and biological evaluation of a synthetic antimicrobial peptide derived from 1-aminocyclohexane carboxylic acid” (2015)
Converted amounts (≈) assume the structure as drawn. The source made the active and inactive calls. The calls are words filed in the database; no cut-off is given here. Square brackets hold non-standard residues; d marks the D form. Peptide text beside a SMILES is read from it. Ac6c = NC1(C(=O)O)CCCCC1

Experiments:
[1] = system: Acinetobacter baumannii; experiment: Antibacterial activity against ampicillin, gentamicin, kanamycin, streptomycin, and tetracycline-resistant Acinetobacter baumannii WRAIR clinical isolate 13 after 24 hrs by standard broth microdilution method; type: functional; conditions: WRAIR clinical isolate 13, 24 h
[2] = Binding affinity to 80 mM Dodecylphosphocholine micelles assessed as Lys connectivities with pH 4.4 sodium acetate buffer by TOCSY spectra
[3] = system: Klebsiella aerogenes; experiment: Antibacterial activity against Enterobacter aerogenes after 24 hrs by standard broth microdilution method; type: functional
[4] = system: Enterococcus faecium; experiment: Antibacterial activity against Enterococcus faecium MMC4 after 24 hrs by standard broth microdilution method; type: functional; conditions: MMC4, 24 h
[5] = system: Staphylococcus aureus; experiment: Antibacterial activity against methicillin-sensitive Staphylococcus aureus UAMS-1 after 24 hrs by standard broth microdilution method; type: functional; conditions: UAMS-1, 24 h
[6] = system: Klebsiella pneumoniae; experiment: Antibacterial activity against ampicillin, azithromycin, chloramphenicol, gentamicin, and tetracycline-resistant Klebsiella pneumoniae BAMS clinical isolate 07-18 after 24 hrs by standard broth microdilution method; type: functional; conditions: BAMS clinical isolate 07-18, 24 h
[7] = system: Lipopolysaccharide (LPS); experiment: Binding affinity to lipopolysaccharides collected from Escherichia coli assessed as helical conformation with 40 mM sodium phosphate buffer at pH 6.8
[8] = system: Lipopolysaccharide (LPS); experiment: Binding affinity to lipopolysaccharides collected from Klebsiella pneumoniae assessed as helical conformation with 40 mM sodium phosphate buffer at pH 6.8
[9] = system: Lipid bilayer; experiment: Binding affinity to 3.5 mM small unilamellar vesicles containing 4:1 POPC/POPG with pH 6.8 sodium phosphate buffer by Far-UV-CD spectra
[10] = system: Lipid bilayer; experiment: Binding affinity to 3.5 mM small unilamellar vesicles containing 60% POPE/21%POPG/19%POPC with pH 6.8 sodium phosphate buffer by Far-UV-CD spectra
[11] = system: Pseudomonas aeruginosa; experiment: Antibacterial activity against Pseudomonas aeruginosa PAO1 after 24 hrs by standard broth microdilution method; type: functional; conditions: PAO1, 24 h
[12] = system: Lipid bilayer; experiment: Binding affinity to 3.5 mM small unilamellar vesicles containing POPC with pH 6.8 sodium phosphate buffer by Far-UV-CD spectra
[13] = system: Lipopolysaccharide (LPS); experiment: Binding affinity to lipopolysaccharides collected from Pseudomonas aeruginosa assessed as helical conformation with 40 mM sodium phosphate buffer at pH 6.8
[14] = Binding affinity to sodium dodecyl sulfate micelles assessed as Lys connectivities with pH 4.4 sodium acetate buffer by TOCSY spectra

## CC(=O)NCC(=O)N[C@@H](Cc1ccccc1)C(=O)NC1(C(=O)NCC(=O)NC2(C(=O)N[C@@H](CCCCN)C(=O)NC3(C(=O)NCC(=O)NC4(C(=O)N[C@@H](Cc5ccccc5)C(=O)NC5(C(=O)NCC(=O)NC6(C(=O)NCC(=O)N[C@@H](CCCCN)C(=O)NC7(C(=O)N[C@@H](CCCCN)C(=O)N[C@@H](CCCCN)C(=O)N[C@@H](CCCCN)C(=O)N[C@@H](CCCCN)C(N)=O)CCCCC7)CCCCC6)CCCCC5)CCCCC4)CCCCC3)CCCCC2)CCCCC1 (Ac-GF[Ac6c]G[Ac6c]K[Ac6c]G[Ac6c]F[Ac6c]G[Ac6c]GK[Ac6c]KKKK-NH2)
[1]
  MIC: 10.9 µM (≈ 24.9 µg/mL)
[2]
  Activity: Active
[3]
  MIC: 21.9 µM (≈ 50 µg/mL)
[4]
  MIC: 10.9 µM (≈ 24.9 µg/mL)
[5]
  MIC: 10.9 µM (≈ 24.9 µg/mL)
[6]
  MIC: 43 µM (≈ 98.2 µg/mL)
[7]
  Activity: Active
[8]
  Activity: Active
[9]
  Activity: Active
[10]
  Activity: Active
[11]
  MIC: 21.9 µM (≈ 50 µg/mL)
[12]
  Activity: inactive
[13]
  Activity: Active
[14]
  Activity: Active
